Laboratory results taken from PubChem BioAssay (NCI).
Values joined by “and” are separate entries in the source; they are usually repeats but may differ in a detail not shown here. Identical values can stand only once.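 In this assay, cells in 96-well plates receive the compound at five concentrations for 48 hours. Endpoints are linearly interpolated between the surrounding concentrations. Abbreviation: GI50, concentration required for 50% inhibition of growth. Definition used: TGI = concentration required for complete inhibition of growth.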

Tests used:
Experiment in all cases: DTP human tumour cell line panel, 48 h
M14 melanoma = test system: M14 melanoma
TK-10 renal = test system: TK-10 renal
SK-OV-3 ovarian = test system: SK-OV-3 ovarian
MDA-MB-231 breast = test system: MDA-MB-231 breast
SN12C renal = test system: SN12C renal
SR leukemia = test system: SR leukemia
OVCAR-3 ovarian = test system: OVCAR-3 ovarian
OVCAR-5 ovarian = test system: OVCAR-5 ovarian
IGROV1 ovarian = test system: IGROV1 ovarian
HS 578T breast = test system: HS 578T breast
SK-MEL-28 melanoma = test system: SK-MEL-28 melanoma
MALME-3M melanoma = test system: MALME-3M melanoma
HOP-62 NSCLC = test system: HOP-62 NSCLC
U251 CNS = test system: U251 CNS
HCC-2998 colon = test system: HCC-2998 colon
RXF 393 renal = test system: RXF 393 renal
UACC-257 melanoma = test system: UACC-257 melanoma
SNB-19 CNS = test system: SNB-19 CNS
A549 NSCLC = test system: A549 NSCLC
UO-31 renal = test system: UO-31 renal
LOX IMVI melanoma = test system: LOX IMVI melanoma
SF-268 CNS = test system: SF-268 CNS
A498 renal = test system: A498 renal
MDA-MB-435 = test system: MDA-MB-435
SK-MEL-2 melanoma = test system: SK-MEL-2 melanoma
T-47D breast = test system: T-47D breast
OVCAR-4 ovarian = test system: OVCAR-4 ovarian
OVCAR-8 ovarian = test system: OVCAR-8 ovarian
NCI-H23 lung = test system: NCI-H23 lung
K-562 leukemia = test system: K-562 leukemia
DU-145 prostate = test system: DU-145 prostate
SF-295 CNS = test system: SF-295 CNS
HL-60(TB) leukemia = test system: HL-60(TB) leukemia
SW-620 colon = test system: SW-620 colon
HCT-15 colon = test system: HCT-15 colon
COLO 205 colon = test system: COLO 205 colon
HT29 colon = test system: HT29 colon
MDA-MB-468 breast = test system: MDA-MB-468 breast
MCF7 breast = test system: MCF7 breast
NCI-H460 lung = test system: NCI-H460 lung
CAKI-1 renal = test system: CAKI-1 renal
MOLT-4 leukemia = test system: MOLT-4 leukemia
UACC-62 melanoma = test system: UACC-62 melanoma
KM12 colon = test system: KM12 colon
SNB-75 CNS = test system: SNB-75 CNS
EKVX NSCLC = test system: EKVX NSCLC
SK-MEL-5 melanoma = test system: SK-MEL-5 melanoma
NCI-H522 lung = test system: NCI-H522 lung
SF-539 CNS = test system: SF-539 CNS
NCI-H226 lung = test system: NCI-H226 lung
PC-3 prostate = test system: PC-3 prostate
ACHN renal = test system: ACHN renal

O=c1oc2ccc(-c3ccc(F)cc3F)cc2c(=O)n1-c1ccc(Cl)c(C(F)(F)F)c1
GI50 (M14 melanoma): 65.2 nM
TGI (M14 melanoma): 3.29 µM
GI50 (TK-10 renal): 3.98 µM
TGI (TK-10 renal): 11.7 µM
GI50 (SK-OV-3 ovarian): 2300 nM
TGI (SK-OV-3 ovarian): 6.3 µM
GI50 (MDA-MB-231 breast): 2350 nM
TGI (MDA-MB-231 breast): 6.97 µM
GI50 (SN12C renal): 2890 nM
TGI (SN12C renal): 9.46 µM
GI50 (SR leukemia): 1790 nM
TGI (SR leukemia): 5.54 µM
GI50 (OVCAR-3 ovarian): 3.22 µM
TGI (OVCAR-3 ovarian): 11 µM
GI50 (OVCAR-5 ovarian): 5.98 µM
TGI (OVCAR-5 ovarian): 21.4 µM
GI50 (IGROV1 ovarian): 4.42 µM
TGI (IGROV1 ovarian): 15.8 µM
GI50 (HS 578T breast): 2600 nM
TGI (HS 578T breast): 8.26 µM
GI50 (SK-MEL-28 melanoma): 4.3 µM
TGI (SK-MEL-28 melanoma): 15.9 µM
GI50 (MALME-3M melanoma): 2620 nM
TGI (MALME-3M melanoma): 7.28 µM
GI50 (HOP-62 NSCLC): 4.18 µM
TGI (HOP-62 NSCLC): 14.6 µM
GI50 (U251 CNS): 3.23 µM
TGI (U251 CNS): 11.1 µM
GI50 (HCC-2998 colon): 3.58 µM
TGI (HCC-2998 colon): 12.8 µM
GI50 (RXF 393 renal): 2210 nM
TGI (RXF 393 renal): 6.51 µM
GI50 (UACC-257 melanoma): 3.41 µM
TGI (UACC-257 melanoma): 14.4 µM
GI50 (SNB-19 CNS): 3.28 µM
TGI (SNB-19 CNS): 13.4 µM
GI50 (A549 NSCLC): 3.53 µM
TGI (A549 NSCLC): 13.1 µM
GI50 (UO-31 renal): 3.45 µM
TGI (UO-31 renal): 14 µM
GI50 (LOX IMVI melanoma): 3.9 µM
TGI (LOX IMVI melanoma): 13.9 µM
GI50 (SF-268 CNS): 3.39 µM
TGI (SF-268 CNS): 11.9 µM
GI50 (A498 renal): 2950 nM
TGI (A498 renal): 8.94 µM
GI50 (MDA-MB-435): 3.49 µM
TGI (MDA-MB-435): 12.6 µM
GI50 (SK-MEL-2 melanoma): 2000 nM
TGI (SK-MEL-2 melanoma): 5.02 µM
GI50 (T-47D breast): 2420 nM
TGI (T-47D breast): 6.76 µM
GI50 (OVCAR-4 ovarian): 4.19 µM
TGI (OVCAR-4 ovarian): 16.7 µM
GI50 (OVCAR-8 ovarian): 4.38 µM
TGI (OVCAR-8 ovarian): 17.9 µM
GI50 (NCI-H23 lung): 2470 nM
TGI (NCI-H23 lung): 8.59 µM
GI50 (K-562 leukemia): 3.18 µM
TGI (K-562 leukemia): > 100 µM
GI50 (DU-145 prostate): 4.03 µM
TGI (DU-145 prostate): 14.3 µM
GI50 (SF-295 CNS): 7.02 µM
TGI (SF-295 CNS): 20.5 µM
GI50 (HL-60(TB) leukemia): 4.66 µM
TGI (HL-60(TB) leukemia): 47.2 µM
GI50 (SW-620 colon): 3.93 µM
TGI (SW-620 colon): 14.9 µM
GI50 (HCT-15 colon): 3.19 µM
TGI (HCT-15 colon): 12.4 µM
GI50 (COLO 205 colon): 16.5 µM
TGI (COLO 205 colon): 30.9 µM
GI50 (HT29 colon): 16.7 µM
TGI (HT29 colon): 31.4 µM
GI50 (MDA-MB-468 breast): 2400 nM and 2820 nM
TGI (MDA-MB-468 breast): 6.08 µM and 7.81 µM
GI50 (MCF7 breast): 2700 nM
TGI (MCF7 breast): 10.4 µM
GI50 (NCI-H460 lung): 3.27 µM
TGI (NCI-H460 lung): 11.2 µM
GI50 (CAKI-1 renal): 2290 nM
TGI (CAKI-1 renal): 8.98 µM
GI50 (MOLT-4 leukemia): 2850 nM
TGI (MOLT-4 leukemia): 15 µM
GI50 (UACC-62 melanoma): 2890 nM
TGI (UACC-62 melanoma): 10.4 µM
GI50 (KM12 colon): 3.86 µM
TGI (KM12 colon): 14.8 µM
GI50 (SNB-75 CNS): 2230 nM
TGI (SNB-75 CNS): 13.4 µM
GI50 (EKVX NSCLC): 2850 nM
TGI (EKVX NSCLC): 12.2 µM
GI50 (SK-MEL-5 melanoma): 1960 nM
TGI (SK-MEL-5 melanoma): 4.04 µM
GI50 (NCI-H522 lung): 2520 nM
TGI (NCI-H522 lung): 7.84 µM
GI50 (SF-539 CNS): 3.9 µM
TGI (SF-539 CNS): 14.7 µM
GI50 (NCI-H226 lung): 2110 nM
TGI (NCI-H226 lung): 12.5 µM
GI50 (PC-3 prostate): 2040 nM
TGI (PC-3 prostate): 10.9 µM
GI50 (ACHN renal): 3.24 µM
TGI (ACHN renal): 12.3 µM
